Data from a melting point compilation (Tetko et al.; mined from patent text by program, amines drawn as free bases though some values may be those of a salt).

| Compound | melting point |
| --- | --- |
| CCCc1c(O)c(C(C)=O)cc(Cl)c1OCCCOc1ccc2ccc(OCC(=O)O)cc2c1C(C)=O | 132 to 134 °C |
| O=C(COc1ccccc1)NC1C(=O)NC1SCC(=O)C1CCCS1 (mixture of isomers) | 123 °C |
| COc1ccc(C(CC(C)=O)N2C(=O)c3cccc(NC(C)=O)c3C2=O)cc1OC1CCCC1 (stereo not given) | 145 to 147 °C |
| CCCc1cc(=O)[nH]c(NC(=N)Nc2ccccc2)n1 | 196 °C |
| NC(=O)C(CC1CCCC1)c1ccc(Cl)c([N+](=O)[O-])c1 (stereo not given) | 112 to 114 °C |
| CC(C)(C)OC(=O)Nc1ccc(-c2ccc(F)cc2)cc1NC(=O)CC(=O)c1cccc(C#N)c1 | 177 to 179 °C |
| C=CCOC(=O)c1cccc(NC(=O)NC(CC(=O)OC(C)(C)C)C(=O)Nc2ccccc2C(=O)c2ccc(OC)cc2)c1 (stereo not given) | 190 to 191 °C |
| COc1ccc(C(C)C)cc1-c1cc(-c2nnnn2C2CCN(C(=O)OC(C)(C)C)C2)c(O)cc1O (stereo not given) | 100 to 104 °C |
| O=c1[nH]c2cc3[nH]c(-c4ccnnc4)nc3cc2o1 | 330 °C |
| CCCCCCCCCCCCS(=O)(=O)c1ccc2c(c1)C(=O)c1c(c(O)c3ccccc3c1O)C2=O | 185 to 186 °C |
| Cc1cc(C(C)C)c(C=O)[nH]1 | 90 to 93 °C |
| O=CN(O)C(CS(=O)(=O)c1ccccc1Oc1ccc(OC(F)(F)F)cc1)C(CO)CO (stereo not given) | 129 to 131 °C |
| CCC(c1ccc(C(=O)OC)cc1)C(C)NCC(O)c1ccc(O)c(CO)c1 (stereo not given) | 73 to 75 °C |
| CCCCCCCCCCCCCCC#Cc1cccc(C=O)n1 | 38.5 to 40 °C |
| COc1cc(Nc2c(C#N)cnc3cc(/C=C/n4nccn4)sc23)c(Cl)cc1Cl | 315 to 316 °C |
| CCOC(=O)c1ncc2[nH]c3ccc(C4CC=CCC4)cc3c2c1C (stereo not given) | 200 to 201 °C |
| COC1=C(OC)C(=O)C2=C(CCC(CCOc3cc(OC)c(OC)c(OC)c3)CC2)C1=O | 91 to 93 °C |
| CC(=O)c1nnc2n1-c1sc(Cl)cc1C(c1ccccc1Cl)=NC2 | 89 to 91 °C |
| OC1(CN2CC2)COc2ccccc2OC1 | 98 to 99.5 °C |
| CC1(C)CC(=O)c2c(C(=O)O)c[nH]c2C1 | 231 to 232 °C |
| CNc1ccc([N+](=O)[O-])cc1C(F)(F)F | 99 to 101 °C |
| Fc1ccc(Cn2c(SC3CCNCC3)nc3cncnc32)cc1 | 114 °C |

| Compound | melting point |
| --- | --- |
| CC=CCn1c(Nc2cc(C)cc(C)c2)c(C(C)C)c(=O)[nH]c1=O | 186 to 187 °C |
| NC(=NCC(F)(F)F)Nc1nc(CO)ns1 | 123 to 125 °C |
| C=C(CC(C)C)C(=O)NCCCCCC(N)=O | 76 to 82 °C |
| Cc1nc2cc(C(=O)NC(C)C)c(NC(=O)c3cc(C(F)(F)F)nn3-c3ncccc3Cl)c(Cl)c2n1C | 248 to 250 °C |
| CC[C@H](N)C(=O)N1c2ccccc2C[C@H]1C(=O)NC | 138 to 139 °C |
| O=CN(O)C(CO)CS(=O)(=O)c1ccccc1Sc1ccc(Cl)cc1 (stereo not given) | 148 to 150 °C |
| CC(CO)NC(=O)COc1cc(Cl)ccc1C(=O)NCCN1CCN(Cc2ccc(Cl)c(Cl)c2)CC1 (stereo not given) | 115 to 116 °C |
| Cc1ncc(C(O)=S)cc1OC1CCCC1 | 177 to 178 °C |
| O=[N+]([O-])c1cccc(Sc2ccc(-c3ccc(Br)cc3)s2)c1 | 120 to 122 °C |
| COC(=O)Cc1c(F)cc(O)cc1F | 75.5 to 77.5 °C |
| NC(=O)N1C(=O)C(C(=O)c2cc(Cl)cs2)c2cc(Cl)ccc21 (stereo not given) | 212 to 214 °C |
| CCCC#Cc1cc(Cl)cc2c1OC(C(F)(F)F)C(C(=O)O)=C2 (stereo not given) | 168 to 171 °C |
| CC(C)NCC(O)COc1ccccc1-n1cccc1 (stereo not given) | 80 to 81 °C |
| CN(C)S(=O)(=O)C(Br)(Br)Sc1ccccc1 | 128 to 129 °C |
| COC(=O)c1cc(O)cc2cc(-c3ccc(O)cc3)oc12 | 236 to 238 °C |
| COC(=O)c1cc(C)cc(-c2cccs2)c1NS(=O)(=O)c1ccc(OC)cc1 | 141 °C |
| CCCC[C@@H](O)[C@H](O)CCCC | 48 to 49 °C |
| COC(F)(F)c1nc2nc(C)c(F)cc2cc1C(=O)C1C(=O)CCCC1=O | 143 to 146 °C |
| O[C@H]1CC[C@H](Nc2nccc(-n3ncc4c(Br)cccc43)n2)CC1 | 200 to 202 °C |
| C#CCn1cc(Br)cnc1=O | 139 to 141 °C |
| COc1ccc(-c2noc(CC(=O)O)c2-c2ccc(OC)cc2)cc1 | 142 to 143 °C |
| COc1c(NC(=O)c2ccc(C)c(-n3cc(C(=O)O)nn3)c2)cc(C(C)(C)C)cc1NS(C)(=O)=O | 222 to 224 °C |

| Compound | melting point |
| --- | --- |
| CCN(CC)Cc1nc2cc(OC)c(OC)cc2c(-c2ccc(OC)c(OC)c2)c1Cl | 146 to 148 °C |
| COC(=O)c1ncsc1S | 100 °C |
| O=[N+]([O-])c1cccc(/C=C/c2nc(C3CCCCC3)cs2)c1 | 102 to 104 °C |
| Cc1sc(N2CCOCC2)nc1CCl | 110 to 111 °C |
| Cc1cc2c(cc1[N+](=O)[O-])OCO2 | 83 to 84 °C |
| Cc1ccc(C2CN(c3cc4c(cc3F)ncc3c4c(=O)c(C(=O)O)cn3C)CCN2)cc1C (stereo not given) | 325 °C |
| ClC(Cl)=CCOc1cc(Cl)c(OCCCCOc2ccc(Cl)cc2)c(Cl)c1 | 54.5 °C |
| CC(C)(C)OC(=O)Nc1ccc(F)c(F)c1C(=O)O | 160 °C |
| O=C1c2c(Br)cccc2-n2cnc(-c3noc(CCl)n3)c2[C@@H]2CCCN12 | 242 to 244 °C |
| Cc1c(C)c2c(c(C)c1N)OC(C)(C)C2=O | 150 to 151 °C |
| COc1ccc(N2CCN(c3c(C)c(C)c4c(c3C)C(=O)C(C)(C)O4)CC2)cc1C | 129 to 131 °C |
| Clc1cc(Br)cnc1Br | 40 to 41 °C |
| N#CC(Cc1ccc(O)cc1)c1noc2cc(O)ccc12 (stereo not given) | 214 °C |
| CCCCCCCCCCCCc1cc2c(s1)NC(=O)CN=C2c1ccccc1Cl | 119 to 121 °C |
| COC(=O)Cn1nnnc1-c1ccc(Cl)cc1 | 156 to 158 °C |
| CCCCOc1c(OC)cc(C(=O)O)cc1[N+](=O)[O-] | 114 to 115 °C |
| N#Cc1nn(-c2c(Cl)cc(C(F)(F)F)cc2Cl)c(N)c1-c1cccc(F)c1 | 164 °C |
| COc1cc2c(cc1N)N(C)C(=O)CN(CC#N)C2 | 128 to 132 °C |
| O=C(O)CCCCCCCCCCc1ccc(Cl)cc1 | 93 °C |
| N#CSc1cc(Cl)c(NCCC(=O)O)cc1Cl | 133 to 135 °C |

The next lines start with the values.

| melting point | Compound |
| --- | --- |
| 128 to 129 °C | CC(C)(C)OC(=O)NCc1nc(C(=O)NNC(=O)OCc2ccccc2)cc(OCc2ccccc2)c1OCc1ccccc1 |
| 92 to 93 °C | COc1ccc(COC(=O)c2ccc3ccccc3c2O)cc1 |
| 127 °C | CC(C)(C)S(=O)(=O)NCc1cc(-c2ccc(Cl)c(Cl)c2)n(Cc2ccc(Cl)c(Cl)c2)n1 |
| 147 to 149 °C | CC1(C)CN(CC2Cc3ccccc3O2)c2nc(-c3ccncc3)cc(=O)n2C1 (racemic) |
| 301 to 303 °C | CC1CC(=O)NN=C1c1ccc2[nH]c(-c3ccncc3)cc2c1 (stereo not given) |
| 200 to 210 °C | Cn1c(COc2ccc(CC3SC(=O)NC3=O)cc2)nc2ccc(Oc3ccccn3)cc21 (stereo not given) |
| 251 °C | NC(=O)c1[nH]c2cccnc2c1Sc1ccccc1 |
| 95 °C | CCOC(=O)COc1ccc(Oc2ccc3cc(Cl)ccc3n2)cc1 |
| 185 to 187 °C | O=C(NNc1ccc(NC(=S)Nc2ccc(NNC(=O)c3ccccc3)cc2)cc1)c1ccccc1 |
| 160 to 163 °C | O=c1oc(-c2ccc([N+](=O)[O-])cc2)nn1-c1ccc(C(F)(F)F)cc1 |
| > 300 °C | Cc1nn(-c2ccccn2)c2[nH]c3ccc(S(C)(=O)=O)cc3c(=O)c12 |
| 130 °C | CC(C)(C)OC(=O)NC(Cc1ccc(CO)cc1)c1cccnc1 (stereo not given) |
| 153 to 155 °C | CCCCc1nn(C(C)C(=O)NC)c(=O)n1Cc1ccc(-c2ccccc2-c2nnn[nH]2)cc1 (stereo not given) |
| 110 to 111 °C | CCCN(CCC)C(=O)Cc1c(-c2ccc(C)cc2)nn2cccnc12 |
| 123 to 125 °C | CN(C)CC(O)COc1ccc2c(c1)OC(C)(C)CC2c1cccc2ccccc12 (stereo not given) |
| 88.9 to 90.3 °C | Cc1nn(CCO)c(C)c1Sc1ccc(Cl)cc1 |
| 123 to 124 °C | CNC(=O)NCCCn1cc(Cn2ccnc2)c2ccccc21 |
| 281 to 283 °C | CCC(=O)OCc1ccc(-c2[nH]c(-c3cccc4ccccc34)nc2C(=O)Nc2nccs2)cc1 |

| melting point | Compound |
| --- | --- |
| 58 °C | O=c1[nH]c(=O)n(C2CC(F)C(COC(c3ccccc3)(c3ccccc3)c3ccccc3)O2)cc1C(I)=CI (stereo not given) |
| 159 to 160 °C | CN(CC(=O)Nc1ccc2[nH]ncc2c1)Cc1ccccc1 |
| 167 to 171 °C | O=C(Nc1ccc(C(F)(F)F)cc1)C1=NN(c2ccc(Cl)cc2)C(c2ccco2)C1 (stereo not given) |
| 95 °C | COc1cc(OCc2ccccc2)ccc1S(=O)(=O)Cl |
| 220 to 222 °C | CN(C)c1ccc(-c2ccnc3c(C(=O)c4cccs4)cnn23)cc1NC(=O)c1ccccc1Cl |
| 204 °C | CC1(C)O[C@@H](CN=C2OCc3ccccc32)[C@H](CN=C2OCc3ccccc32)O1 |
| 249 to 252 °C | c1cn(Cc2ccc3c(c2)-c2[nH]nc(-c4ccsc4)c2C3)nn1 |
| 122 to 123 °C | O=C(NCc1ccccc1)c1ccccc1I |
| 145 to 147 °C | CSc1ccc(/C=C2/C(C)=C(CCCN(O)C(N)=O)c3cc(F)ccc32)cc1 |
| 189 to 190 °C | O=C1C(c2ccc(-c3ccccc3)cc2)n2cncc2CN1Cc1ccc(F)cc1 (stereo not given) |
| 86 to 87 °C | Cc1c(Sc2cccnc2)sc2ccc(Br)cc12 |
| 140 to 141 °C | Cc1ccc(Cc2cnc(NCCCCc3ncc(Cl)cc3C)[nH]c2=O)cn1 |
| 227 to 228 °C | O=C(Nc1ccc(-c2nc3ccccc3s2)cc1)c1ccccc1 |
| 274 to 276 °C | Cc1nn(Cc2ccccc2)c2c1c(=O)n(-c1ccccc1)c1ncccc21 |
| 157 to 160 °C | CC(C)(C)N(CC(=O)O)C(=O)C(NC(=O)c1ccccc1)SC(=O)c1ccccc1 (stereo not given) |
| 178 to 180 °C | N#Cc1ccc(C(=O)N2CCc3c(n(Cc4cccc(C#N)c4)c4ccccc34)C2)cc1 |
| 179 to 198 °C | Cc1ccc2c(c1)C(=O)c1ccccc1S2(=O)=O |
| 194 to 195 °C | O=c1[nH]c(=O)n(Cc2ccccc2)cc1C(F)(F)F |
